Tested on: endogenous Haspin kinase (phosphorylation of Histone H3 on Thr3) in U2OS cells
Test: H3T3ph immunofluorescence assay in U2OS cells (cellular endogenous Haspin activity)
Type: cell-based
Details: 2.5 μM compound, 16 h, early mitotic cells; for inhibition at 2.5 µM: Homo sapiens, read-out: Inhibition of endogenous Haspin activity (H3T3 phosphorylation) compared to DMSO control
Experimental: In order to assess the ability of our most interesting compounds to inhibit cellular endogenous Haspin kinase, we evaluated their effects on the phosphorylation of Histone H3 on Thr3, a bona fide Haspin substrate (Figure 4). We treated osteosarcoma U2OS cells with 2.5 μM of selected compounds for 16 h before quantifying H3T3 phosphorylation by immunofluorescence on early mitotic cells (Figure 4A,B). […] This discrepency could be explained by the inability of this compound to cross the plasma membrane or by reduced stability in a cellular environment.
Ethical approval for this study was obtained (9 July 2025) from DGRI-LabOGM (APPROVAL NUMBER: L1-2373). U2OS cells (purchased from ATCC, Manassas, VA, USA, reference HTB-96) were grown in DMEM medium (Dulbecco’s Modified Eagle Medium, High glucose; GlutaMAX, Life Technologies, Carlsbad, CA, USA) supplemented with 10% fetal bovine serum (Gibco, Grand Island, NY, USA) in a 5% CO2 humidified atmosphere. Cells grown on coverslips were treated for 16 h with each compound or 0.025% DMSO, then fixed with 4% paraformaldehyde in PBS, permeabilized by 0.15% Triton-X100 for 2 min, and blocked for 12 min in 4% BSA in PBS. Immunofluorescence assay was performed using standard protocols with a rabbit anti-phospho-Thr3 Histone H3 and a mouse anti-a-Tubulin (B-5-1-2) obtained from Merck Millipore, Burlington, MA, USA (1/2000 dilution). Coverslips were mounted with Vectashield containing DAPI (Vector Laboratories, Newark, CA, USA). Images were acquired with a Coolsnap HQ2 CCD camera (Photometrics, Tucson, AZ, USA) on a Zeiss Axio microscope (Carl Zeiss, Oberkochen, Germany) using a 63x NA 1.46 objective. Image acquisition and processing were performed using Zen Blue (Carl Zeiss). The H3T3ph signal on chromosomes was normalized against the DAPI signal and analyzed using ImageJ software (NIH, Version 1.54p). Graphs were produced and statistical analysis was performed using GraphPad Prism 10. p-values were determined by t-test; n.s., not significant; **** p ≤ 0.0001.
Figure 4 Evaluation of selected compounds on cellular endogenous Haspin activity. (A) U2OS cells were treated with 2.5 μM of each compound or 1 μM of CHR6494 (CHR) or DMSO for 16 h. Immunofluorescence assay was performed with anti-pH3T3 antibody (green) and anti-a-Tubulin (red); DNA was labelled with DAPI (blue). Representative images of early mitotic cells for each condition are presented. Scale bar: 5 μm. (B) Scatter plot representing H3T3ph/DAPI signal ratio indicative of Haspin activity; n > 17 mitotic cells per condition. n.s., not significant; **** p ≤ 0.0001.

| SMILES | inhibition at 2.5 µM | Inhibition of endogenous Haspin activity (H3T3 phosphorylation) compared to DMSO control |
| --- | --- | --- |
| c1c[nH]c(-c2c[nH]c3cc4cnccc4cc23)c1 [Compound 17, 3-(1H-Pyrrol-2-yl)-1H-pyrrolo[3,2-g]isoquinoline] | ~43% | – |
| c1cc2cc3c(-c4cc[nH]n4)c[nH]c3cc2cn1 [Compound 15, 3-(1H-Pyrazol-3-yl)-1H-pyrrolo[3,2-g]isoquinoline] | 66% | – |
| COC(=O)/C=C/c1c[nH]c2cc3cnccc3cc12 [Compound 8, Methyl (E)-3-(1H-Pyrrolo[3,2-g]isoquinolin-3-yl)prop-2-enoate] | – | did not show any significant inhibitory potential |
| c1cc2cc3c(-c4cn[nH]c4)c[nH]c3cc2cn1 [Compound 16, 3-(1H-Pyrazol-4-yl)-1H-pyrrolo[3,2-g]isoquinoline] | 77% | – |
| Nc1ccc(-c2c[nH]c3cc4cnccc4cc23)cn1 [Compound 3, 5-(1H-Pyrrolo[3,2-g]isoquinolin-3-yl)pyridin-2-amine] | ~43% | – |

Reference: article PMC12655252, “Synthesis of 1H-Pyrrolo[3,2-g]isoquinoline Derivatives as Ligands Targeting Haspin Kinase” (Molecules, 2025)
